Columns and labels:
[1] = system: BCR signaling pathway in BCL1 mouse lymphoma cells; assay: BTK phosphorylation by flow cytometry in IgM-stimulated BCL1 cells; assay type: cell-based; conditions: solHVEM 10 μg/ml
Experimental: FIG. 4A-E. HVEM blocks BCR signaling in a cell autonomous and BTLA dependent manner. FIG. 4A and FIG. 4B, Quantification of FACS analysis of phosphorylated BTK (pBTK) expression in BCL1 cells after stimulation with anti-IgM in the presence of solHVEM (10 μg/m1) or Ibrutinib (10 nM) without (FIG. 4A) or with (FIG. 4B) the knockdown of BTLA (shBTLA); FIG. 4C, FACS analysis of BTLA expression on purified primary human FL B cells distinguishes samples with high (BTLA^hi) and low (BTLAlo) surface BTLA expression); FIG. 4D, FACS analysis for the indicated signaling molecules in human primary FL B cells that were BTLA^hi or BTLAlo and stimulated with anti-human IgG (3 min; 10 μg/ml and H2O2 1 mM) in the presence or absence of the soluble HVEM ectodomain (solHVEM; 10 μg/ml) (right); FIG. 4E, Percentage of pSyk inhibition was calculated by comparing the ratio of MFI of pSyk+/−solHVEM and was correlated to BTLA ratio of MFI (r=0.697, p=0.03, Purified FL B cells, n=10, grade 1 and grade 2).
Loss of HVEM and BTLA leads to BCR activation in murine lymphomas (FIGS. 2G and 3F). […] Briefly, the BCR signaling pathway in BCL1 mouse lymphoma cells was stimulated with IgM in the presence or absence of solHVEM (10 μg/ml) or the pharmacological BTK inhibitor ibrutinib (10 nM) and BTK phosphorylation was measured as an indicator of BCR pathway activation by flow cytometry. […]

[2] = system: MYC/BCL2 double positive murine lymphoma cells; assay: In vivo treatment of engrafted myc-bcl2 murine lymphomas by intratumoral injection; design: species or system J:Nu nude mice
Experimental: FIG. 7A-H. The solHVEM (either Leu39-Va1202 or Pro37-Va1202) protein restores tumor suppressive effects of HVEM.
FIG. 20. sTNFRSF14 inhibits tumor growth in vivo. Xenograft myc-bc12 lymphomas were grown in the flanks of mice. When the tumors reached a volume of approximately 0.5 cm^3 mice were treated every other day by intra-tumoral injection in the flanks with 20 ug/ml of sTNFRSF14diluted in PBS. The control (vehicle) animals were treated with PBS. Tumors were weighed and volumes were measured twice weekly.
FIG. 21. sTNFRSF14 decreases lymphoma growth in a xenograft model. 5 million myc-Bcl2 cells were mixed with Matrigel and injected subcutaneously into the flanks of mice J:Nu Nude (Foxn1 nu/Foxn1 nu) mice. Animals were sacrificed according to IUCAC protocols. Upon sacrifice tumors were weighed and measured.
FIG. 22. Exogenous administration of sTNFRSF14 suppresses mouse lymphoma xenografts. Animals were sacrificed on day day 11 and the xenografted tumors were excised from the flanks of the mice. The tumors from each flank—treated (sTNFRSF14) and untreated (vehicle) were weighed. Bars represent the average of n=4 mice.
FIG. 24. Immunohistochemical analysis of xenograft tumors. Pathological analysis of sTNFRSF14 treated and vehicle treated mouse lymphomas. Tumors were excised from the flanks of the animals and fixed in 4% paraformaldehyde overnight. The tumors were sectioned and stained via IHC for particular tumor markers. Representative staining for HE, TUNEL, and Ki67 is shown.
Building on these findings, experiments were performed to test whether solHVEM would have any single agent activity against lymphomas. First, the expression of the BTLA receptor was characterized across a panel of human and mouse lymphoma (mostly DLBCL) cell lines. […] Next, experiments were performed to test if solHVEM had any effect on established BTLA^hi lymphomas in vivo. Briefly, aggressive MYC/BCL2 double positive murine lymphoma cells that express BTLA (BTLA^hi) were transplanted into the flanks of J:Nu nude mice and mice were treated with 20 μg of solHVEM or vehicle (PBS) every three days for a total four times once the engrafted tumors reached a volume of ˜50 mm3. […] Similar results were obtained both in vitro and in vivo with a different soluble HVEM molecule consisting of the extracellular region from amino acids Pro37 to Va1202 (SEQ ID NO. 6).
Transplant and treatment studies were generated as previously described (Schatz et al., 2011). In summary, subcutaneous injection of one million myc-bcl2 mouse lymphoma cells combined with Matrigel (BD) in the right and left flanks of mice J:Nu Nude (Foxn1 nu/Foxn1 nu). Once tumors reached 75-mm3 mice were treated every three days by intra tumor injection with 20 m of sHVEM diluted in PBS (right flank) or with vehicle control (left flank). Tumor sizes were measured and recorded every three days. Tumors were weighed after the animals were sacrificed and tumors excised.
To study the effects of the sTNFRSF14 polypeptide in vivo, five (5) million myc-bc12 cells were injected into both the right and left flanks of nude mice. Upon formation of palpable tumors treatment was commenced. The treatment comprise injecting mice intra-tumorally with either 20 ug of sTNFRSF14 on the right flank or vehicle on the left flank.

[3] = 20 μg intratumoral every three days
[4] = compared to vehicle-treated tumors

In the case of “solHVEM: Leu39-Val202 soluble HVEM ectodomain polypeptide of SEQ ID NO. 8”, the “BTK phosphorylation and activation” value ([1]; BCL1 cells stimulated with IgM) is reported as “blocked BTK phosphorylation and activation”, the “BTK inhibition with knockdown of BTLA” value ([1]; BCL1 cells with shBTLA) is reported as “knockdown of BTLA prevented BTK inhibition” and the “ERK inhibition in tumors by immunoblot” value [2, 3] is reported as “ERK inhibition”. The “apoptosis by TUNEL stain in tumors” value [2, 3] was “abundant apoptosis” and the tumor growth ([2]; 20 μg intratumoral every three days, four times, n=4, p<0.01) was “prevented any further tumor growth”.

B1: sTNFRSF14: Pro37-Val202 soluble HVEM ectodomain polypeptide of SEQ ID NO. 6 (protein, listed as Homo sapiens)
chain: PALPSCKEDEYPVGSECCPKCSPGYRVKEACGELTGTVCEPCPPGTYIAHLNGLSKCLQCQMCDPAMGLRASRNCSRTENAVCGCSPGHFCIVQDGDHCAACRAYATSSPGQRVQKGGTESQDTLCQNCPPGTFSPNGTLEECQHQTKCSWLVTKAGAGTSSSHWV
In the case of B1, the tumor growth ([2]; 20 ug intra-tumoral, right flank, vehicle left flank) is reported as “near complete growth delay”, the tumor weight ([2]; 11 days after treatment initiation, average, 20 ug intra-tumoral) is reported as 0.75 grams and the “TUNEL staining in tumors” value [2, 4] is reported as “higher levels”. For the same molecule, the “levels of phosphorylated ERK in tumors” value [2, 4] was “reduced levels” and the “proliferation marker Ki67 in tumors” value [2, 4] was “decrease”.
